Source: ChEMBL document CHEMBL1127438, “Substituted (S)-phenylpiperidines and rigid congeners as preferential dopamine autoreceptor antagonists: synthesis and structure-activity relationships” (J Med Chem, 1994)

What was measured:
D(3) dopamine receptor [1] = target: T1, D(3) dopamine receptor (Homo sapiens, UniProt P35462); assay: Tested for in vitro binding affinity against cloned mammalian dopamine D3 receptor, expressed in CHO-K1 cells, using [3H]spiperone as radioligand; type: cell-based
Rattus norvegicus [2] = assay: Evaluated for DOPAC level in nonpretreated habituated rats after subcuteneous dose of 100 micro mol/kg in rat striatum; type: functional
Rattus norvegicus [3] = assay: Effect of (60 min after administration of 200 (uM/kg) subcuteneous dose on DA release in brain dialysis model of rat striatum; Values expressed as percent of saline controls; type: functional
Rattus norvegicus [4] = assay: Tested in vivo for its ability to displace DA receptor agonist (Di-Pr-5,6-ADTN) from rat striatal binding sites at 0.25 uM/Kg sc. dose (after subtraction of cerebellum levels); type: functional
Rattus norvegicus [5] = assay: Evaluated biochemically in nonpretreated habituated rats for (100 uM/kg) subcuteneous dose, Value expressed as locomotor activity (LMA); type: functional
Rattus norvegicus [6] = species on record: Rattus norvegicus; assay: Tested in vio for concomitant ability to antagonize the locomotor activity of rat induced by Di-Pr-5,6-ADTN, Value expressed as locomotor activity (LMA), % of control; type: functional; set-up: scale not given: the % may be the effect or the level left
D(2) dopamine receptor [7] = target: T2, D(2) dopamine receptor (Rattus norvegicus, UniProt P61169)
T2 sequence (P61169 whole entry): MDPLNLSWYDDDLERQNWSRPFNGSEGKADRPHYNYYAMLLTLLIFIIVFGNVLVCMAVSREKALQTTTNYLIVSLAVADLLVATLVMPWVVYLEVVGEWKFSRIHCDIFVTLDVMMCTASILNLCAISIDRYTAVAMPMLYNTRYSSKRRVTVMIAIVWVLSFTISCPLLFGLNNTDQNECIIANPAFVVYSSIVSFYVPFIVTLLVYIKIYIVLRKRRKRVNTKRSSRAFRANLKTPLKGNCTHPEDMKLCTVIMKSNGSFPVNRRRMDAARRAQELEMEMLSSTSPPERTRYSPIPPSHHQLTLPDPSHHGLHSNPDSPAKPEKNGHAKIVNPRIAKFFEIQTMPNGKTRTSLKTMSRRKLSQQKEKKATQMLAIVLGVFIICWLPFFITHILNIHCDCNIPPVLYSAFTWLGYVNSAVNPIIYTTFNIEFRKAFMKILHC
Description: Affinity against striatal dopamine D2 receptors using [3H]spiperone as radioligand in rats.

D(2) dopamine receptor [8] = target: T3, D(2) dopamine receptor (Homo sapiens, UniProt P14416); assay: biochemical
T3 sequence (P14416 whole entry): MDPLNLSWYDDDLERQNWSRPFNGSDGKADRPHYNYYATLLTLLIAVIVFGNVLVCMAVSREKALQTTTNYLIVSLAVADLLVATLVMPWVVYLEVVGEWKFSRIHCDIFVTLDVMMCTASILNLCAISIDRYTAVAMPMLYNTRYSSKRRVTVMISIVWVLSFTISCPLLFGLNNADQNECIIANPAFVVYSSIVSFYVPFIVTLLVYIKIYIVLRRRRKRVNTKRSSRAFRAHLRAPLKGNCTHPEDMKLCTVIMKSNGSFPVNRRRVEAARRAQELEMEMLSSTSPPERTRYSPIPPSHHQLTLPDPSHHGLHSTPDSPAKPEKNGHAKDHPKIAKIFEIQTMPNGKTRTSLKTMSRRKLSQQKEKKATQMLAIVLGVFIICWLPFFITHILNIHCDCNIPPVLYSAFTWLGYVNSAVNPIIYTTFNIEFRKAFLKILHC
Description: Affinity against recombinant dopamine receptor (DA) D2 expressed in CHO-K1 cells, using [3H]-spiperone as radioligand

D(2) dopamine receptor [9] = target: T3, D(2) dopamine receptor; assay: biochemical; remark: listed apart in the source
Description: In vitro binding affinity against cloned mammalian dopamine D2 autoreceptor, expressed in CHO-K1 cells, using [3H]U-86170 as radioligand

Dopamine receptor = assay: Tested for in vitro binding affinity against cloned mammalian dopamine autoreceptor (DA) receptors expressed in CHO-K1 cells using [3H]U-86170 as radioligand; type: cell-based
D(3) dopamine receptor [10] = target: T1, D(3) dopamine receptor; assay: Tested for in vitro binding affinity against cloned mammalian dopamine autoreceptor (DA) receptors expressed in CHO-K1 cells [3H]-spiperone as radioligand; type: cell-based
D(2) dopamine receptor [11] = target: T2, D(2) dopamine receptor; assay: Tested for affinity against striatal dopamine autoreceptor (DA) D2 receptors using [3H]spiperone as radioligand in rats.
Rattus norvegicus [12] = assay: Evaluated for DOPA accumulation (DOPAacc) level in nonhabituated rats after subcuteneous dose (100 uM/kg) in rat striatum; type: functional
Rattus norvegicus [13] = assay: Evaluated biochemically in nonhabituated rats for (100 umol/kg) subcuteneous dose, Value expressed as locomotor activity (LMA); type: functional
Rattus norvegicus [14] = assay: Evaluated for DOPA accumulation in nonhabituated rats at 100 umol/kg of subcuteneous dose in rat striatum; type: functional
Rattus norvegicus [15] = assay: Evaluated for biochemical levels of DOPAC in nonpretreated habituated rats for subcuteneous dose of 100 micro mol/kg in rat striatum; type: functional
Rattus norvegicus [16] = assay: Evaluated for locomotor activity in nonpretreated habituated rats in 100 umol/kg of subcuteneous dose; type: functional; set-up: unit not given here
Rattus norvegicus [17] = assay: Evaluated biochemically in reserpine-pretreated habituated rats for (100 umol/kg) subcuteneous dose in rat striatum (DOPAacc), Value expressed as counts/30 min; type: functional
Rattus norvegicus [18] = assay: Evaluated biochemically in reserpine-pretreated habituated rats for (100 umol/kg) subcuteneous dose, Value expressed as locomotor activity (LMA); type: functional

T1 sequence (P35462 whole entry): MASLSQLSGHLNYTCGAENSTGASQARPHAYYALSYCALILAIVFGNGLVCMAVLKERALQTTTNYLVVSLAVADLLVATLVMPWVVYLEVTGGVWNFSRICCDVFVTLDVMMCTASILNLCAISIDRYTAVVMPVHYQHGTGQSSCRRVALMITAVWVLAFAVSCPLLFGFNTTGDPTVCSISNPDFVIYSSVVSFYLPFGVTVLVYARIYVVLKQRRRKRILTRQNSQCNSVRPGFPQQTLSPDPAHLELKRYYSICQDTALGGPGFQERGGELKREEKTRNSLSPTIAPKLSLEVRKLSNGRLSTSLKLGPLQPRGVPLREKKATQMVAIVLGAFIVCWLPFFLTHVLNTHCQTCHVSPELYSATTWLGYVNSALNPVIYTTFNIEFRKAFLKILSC

Compound | Ki (D(3) dopamine receptor [1]) | Activity (Rattus norvegicus [2]) | Control (Rattus norvegicus [5]) | Ki (D(2) dopamine receptor [7]) | Ki (D(2) dopamine receptor [8]) | Ki (D(2) dopamine receptor [9]) | Activity (Rattus norvegicus [12]) | Locomotor activity (% of control) (Rattus norvegicus [13]) | other results
CCC(C)N1CCC[C@@H](c2cccc(C#N)c2)C1 (stereo partly specified) | 105 nM | 267% | 346% | 1050 nM | 98 nM | 187 nM |  |  | Activity (Rattus norvegicus [3]): 256%; Control (Rattus norvegicus [4]): 59%; Control (Rattus norvegicus [6]): 56%
N#Cc1cccc([C@@H]2CCCN(CCCc3ccccc3)C2)c1 | 36 nM | 280% | 484% | 80 nM | 60 nM | 29 nM |  |  | 
C=CCN1CC[C@H]2c3cccc(OC)c3CC[C@H]21 |  | 314% | 182% |  |  |  |  |  | 
CCCN1CCC[C@@H](c2cccc(C)c2)C1 |  |  |  |  | > 217 nM |  |  |  | Ki (Dopamine receptor): 430 nM; Ki (D(3) dopamine receptor [10]): 573 nM; Ki (D(2) dopamine receptor [11]): 930 nM
CC(C)N1CCC[C@@H](c2cccc(C#N)c2)C1 | 268 nM |  | 366% | 717 nM | > 217 nM | 106 nM | 301% | 102% | 
CCCN1CCC[C@@H](c2ccccc2OS(=O)(=O)C(F)(F)F)C1 |  |  |  |  | > 217 nM |  |  |  | Ki (Dopamine receptor): 315 nM; Ki (D(3) dopamine receptor [10]): 3110 nM; Activity (Rattus norvegicus [14]): 102%; Activity (Rattus norvegicus [15]): 83%
CCCN1CCC2c3cccc(OS(=O)(=O)C(F)(F)F)c3CCC21 (stereo unspecified) |  |  |  |  | > 217 nM |  |  |  | Ki (Dopamine receptor): 89 nM; Ki (D(3) dopamine receptor [10]): 61 nM; Ki (D(2) dopamine receptor [11]): 82 nM; Activity (Rattus norvegicus [15]): 223%; LMA (Rattus norvegicus [16]): 687
CN1CCC[C@@H](c2cccc(C#N)c2)C1 | 1760 nM | 174% |  | 8330 nM | > 217 nM | 1040 nM | 215% | 79% | 
C#CCN1CCC[C@@H](c2cccc(C#N)c2)C1 | > 1360 nM | 146% | 297% | > 15000 nM | > 217 nM | 1180 nM |  |  | 
N#Cc1cccc([C@@H]2CCCN(CCc3ccccc3)C2)c1 | 59 nM |  | 510% | 105 nM | > 217 nM | 22 nM | 176% | 120% | 
CCCN1CCC[C@@H](c2cccc(NS(=O)(=O)C(F)(F)F)c2)C1 | > 2000 nM | 91% | 305% |  | > 217 nM |  |  |  | 
N#Cc1cccc([C@@H]2CCCNC2)c1 | 631 nM | 167% | 575% |  | > 217 nM | 314 nM | 271% | 193% | 
C=CCN1CCC[C@@H](c2cccc(C#N)c2)C1 | 658 nM |  |  | 1890 nM | > 217 nM | 254 nM | 257% | 143% | Activity (Rattus norvegicus [17]): 85%; Activity (Rattus norvegicus [3]): 522%; Control (Rattus norvegicus [4]): 59%; Control (Rattus norvegicus [18]): 3%; Control (Rattus norvegicus [6]): 46%
N#Cc1cccc([C@@H]2CCCN(CC3CC3)C2)c1 | 522 nM |  |  |  | > 217 nM | 519 nM |  | 191% | 
CCCN1CCC[C@@H](c2ccc(OS(=O)(=O)C(F)(F)F)cc2)C1 |  |  |  |  | > 217 nM |  |  |  | Ki (Dopamine receptor): 1736 nM; Ki (D(3) dopamine receptor [10]): 1140 nM; Ki (D(2) dopamine receptor [11]): 11800 nM; Activity (Rattus norvegicus [14]): 495%; Activity (Rattus norvegicus [15]): 85%
